Values joined by “and” are separate entries in the source; they are usually repeats but may differ in a detail not shown here. Equal values may be shown once.
Columns and labels:
∆pyr K. oxytoca = assay: RNA-seq of compound-supplemented ∆pyr K. oxytoca; type: cell-based, Klebsiella oxytoca ATCC 8724; conditions: 10 µM
Description: A ∆pyr K. oxytoca glycerol stock was streaked onto an LB-Agar plate supplemented with spectinomycin (50 µg/mL) and incubated aerobically at 30°C for 24 h in a stationary incubator. Single colonies were grown for 24 h aerobically in 5 mL of M9 minimal medium supplemented with 5 g/L casamino acids and 0.4% D-galactose at 30 °C and 250 rpm. Each ∆pyr K. oxytoca overnight culture was diluted 1:1000 into fresh medium (5 mL) and incubated aerobically at 30 °C and 250 rpm to mid-exponential growth (OD600 = 0.8). These conditions abrogated both detectable pyrazine and pyrazinone production. At this point, 10 µM of compound in DMSO, were added to the cultures; an equal volume of DMSO was added to cultures without compound as a solvent vehicle control. The cultures were incubated under aerobic conditions with the compounds for one hour at 30 °C and at 250 rpm. After incubation, the cultures were centrifuged, the supernatants were decanted, and the cell pellets were quickly resuspended in 5 mL of Bacterial RNAProtect (Qiagen). The samples were centrifuged again, and the pellets were frozen on dry ice and stored at −80 °C until RNA extraction. The processed cell pellets were thawed on ice and resuspended in 200 µL of lysis buffer (10 mM Tris, 1 mM EDTA, 5 mg/mL lysozyme, 12.5 µg/mL proteinase K [pH 8.0]) and incubated at room temperature for 10 min. The RNA was extracted via the Qiagen RNeasy Mini kit, treated with TURBO DNase in a total volume of 100 µL at room temperature for 30 min, and extracted again using an RNeasy Mini kit. RNA-seq analysis was conducted by the Yale Center for Genome Analysis. Sequences were aligned to the K. oxytoca ATCC 8724 genome (NC_016612.1). Differential expression analysis was performed through DESeq2 and pathway enrichment analysis was performed through the Funage-Pro web-based platform.

HRH1 = target: T1, HRH1 (Homo sapiens, UniProt P35367); assay: PRESTO-Tango GPCR screen and dose-response; type: cell-based; conditions: for HRH1 dose-response raw reporter signal (Fig. 5b source data): replicate wells
T1 construct: expressed in transfected cells; host or cells: HTLA cells (HEK293 line stably expressing β-arrestin-TEV and tTA-Luciferase)
T1 sequence (P35367 whole entry): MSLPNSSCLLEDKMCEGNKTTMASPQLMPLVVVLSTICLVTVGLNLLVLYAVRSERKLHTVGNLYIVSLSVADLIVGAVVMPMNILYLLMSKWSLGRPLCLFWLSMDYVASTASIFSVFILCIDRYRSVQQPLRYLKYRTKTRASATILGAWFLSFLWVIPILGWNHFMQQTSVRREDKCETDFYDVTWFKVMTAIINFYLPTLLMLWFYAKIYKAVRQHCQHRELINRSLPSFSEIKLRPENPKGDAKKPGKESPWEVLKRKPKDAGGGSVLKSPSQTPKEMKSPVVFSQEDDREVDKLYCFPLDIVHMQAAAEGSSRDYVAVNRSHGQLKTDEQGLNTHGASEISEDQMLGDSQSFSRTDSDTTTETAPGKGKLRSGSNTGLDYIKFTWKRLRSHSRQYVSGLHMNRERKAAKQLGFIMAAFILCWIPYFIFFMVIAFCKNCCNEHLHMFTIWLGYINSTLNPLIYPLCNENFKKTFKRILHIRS
Description: (§1) The PRESTO-Tango analyses were performed as previously published. Briefly, HTLA cells, a HEK293 cell line that stably expresses β-arrestin-TEV and tTA-Luciferase (a kind gift from Gilad Barnea, Brown University), were plated in 96-well tissue culture plates (Eppendorf) in DMEM containing 10% FBS and 1% Penicillin/Streptomycin. One day after plating (after reaching approximately 90% confluence), 200 ng per well GPCR-Tango plasmids[37] in 20 μL DMEM were individually mixed with 400 ng polyethylenimine (Polysciences) in an equal volume of DMEM and incubated for 20 min at room temperature before adding the transfection mixture to the HTLA cells. 16-24 h after transfection, medium was replaced with 180 μL fresh DMEM containing 1% Penicillin/Streptomycin and 10 mM HEPES and 20 μL of 3 or 3-Homo to reach a final concentration of 100 μM. Supernatants were aspirated 20 h after stimulation and 50 μl per well of Bright-Glo solution (Promega) diluted 20-fold with PBS containing 20 mM HEPES was added into each well. After 15 min incubation at room temperature, luminescence was quantified using a Spectramax i3x microplate reader (Molecular Devices). Activation fold for each sample was calculated by dividing relative luminescence units (RLU) for each condition by RLUs from PBS control. Dose response curves of each chemical were performed in a similar way with varying the ligand concentration from 10^−4 M to 10^−15 M.

HRH2 = target: T2, HRH2 (Homo sapiens, UniProt P25021); assay: PRESTO-Tango GPCR screen and dose-response; type: cell-based; conditions: for HRH2 dose-response raw reporter signal (Fig. 5b source data): replicate wells
T2 construct: expressed in transfected cells; host or cells: HTLA cells (HEK293 line stably expressing β-arrestin-TEV and tTA-Luciferase)
T2 sequence (P25021 whole entry): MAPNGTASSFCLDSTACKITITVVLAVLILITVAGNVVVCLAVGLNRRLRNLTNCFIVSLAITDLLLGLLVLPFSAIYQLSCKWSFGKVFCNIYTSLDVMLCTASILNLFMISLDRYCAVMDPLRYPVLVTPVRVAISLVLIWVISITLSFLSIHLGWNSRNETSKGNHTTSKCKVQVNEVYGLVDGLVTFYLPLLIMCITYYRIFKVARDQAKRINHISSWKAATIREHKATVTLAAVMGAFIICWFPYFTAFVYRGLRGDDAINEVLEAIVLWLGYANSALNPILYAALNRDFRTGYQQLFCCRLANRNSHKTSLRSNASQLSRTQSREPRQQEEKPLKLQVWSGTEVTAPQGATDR
Description: as §1

HRH3 = target: T3, HRH3 (Homo sapiens, UniProt Q9Y5N1); assay: PRESTO-Tango GPCR screen and dose-response; type: cell-based; conditions: for HRH3 dose-response raw reporter signal (Fig. 5b source data): replicate wells
T3 construct: expressed in transfected cells; host or cells: HTLA cells (HEK293 line stably expressing β-arrestin-TEV and tTA-Luciferase)
T3 sequence (Q9Y5N1 whole entry): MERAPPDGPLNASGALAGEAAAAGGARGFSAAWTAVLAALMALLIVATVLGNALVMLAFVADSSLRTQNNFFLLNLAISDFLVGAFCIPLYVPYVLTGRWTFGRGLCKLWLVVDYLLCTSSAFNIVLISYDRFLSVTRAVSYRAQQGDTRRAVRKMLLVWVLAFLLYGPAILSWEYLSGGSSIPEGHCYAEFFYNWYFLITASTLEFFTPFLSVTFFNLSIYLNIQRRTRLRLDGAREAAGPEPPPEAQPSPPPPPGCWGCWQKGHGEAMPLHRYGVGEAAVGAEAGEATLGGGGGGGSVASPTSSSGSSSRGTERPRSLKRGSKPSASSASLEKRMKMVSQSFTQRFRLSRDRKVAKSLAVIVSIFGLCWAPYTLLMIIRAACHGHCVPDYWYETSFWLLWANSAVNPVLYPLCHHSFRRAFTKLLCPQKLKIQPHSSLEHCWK
Description: as §1

[1] = target: T4, histamine receptor H4 (HRH4) (Homo sapiens, UniProt Q9H3N8); assay: PRESTO-Tango GPCR screen and dose-response; type: cell-based; conditions: for HRH4 dose-response raw reporter signal (Fig. 5b source data): replicate wells
T4 construct: expressed in transfected cells; host or cells: HTLA cells (HEK293 line stably expressing β-arrestin-TEV and tTA-Luciferase)
T4 sequence (Q9H3N8 whole entry): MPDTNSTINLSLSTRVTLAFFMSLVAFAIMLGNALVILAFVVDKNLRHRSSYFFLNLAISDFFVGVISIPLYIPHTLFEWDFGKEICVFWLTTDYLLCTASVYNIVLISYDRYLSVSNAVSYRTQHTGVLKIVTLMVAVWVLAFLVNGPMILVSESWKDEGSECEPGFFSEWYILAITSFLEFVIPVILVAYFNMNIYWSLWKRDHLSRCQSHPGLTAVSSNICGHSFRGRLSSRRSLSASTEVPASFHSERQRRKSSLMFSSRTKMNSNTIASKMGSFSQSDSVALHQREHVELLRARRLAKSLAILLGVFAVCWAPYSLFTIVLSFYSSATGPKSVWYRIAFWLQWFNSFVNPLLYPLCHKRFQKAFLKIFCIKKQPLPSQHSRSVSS
Description: as §1

[2] = system: leup operon (leupeptin BGC) promoter in K. oxytoca ATCC 8724; assay: GFP-based transcriptional reporter for the leup operon; type: cell-based, Klebsiella oxytoca; conditions: carbohydrate screen, M9 + casamino acid + 0.4% indicated sugar, 30 °C, 24 h
Source text: We previously examined a panel of 84 clinical K. oxytoca isolates (including recently renamed Klebsiella michiganensis isolates) for the presence of either the leup operon or npsB, an NRPS of the tilimycin/tilivalline gene cluster. […] While the roles of tilivalline and tilimycin in hemorrhagic colitis are well studied[8],[9], the operon for leupeptin biosynthesis is “silent” in K. oxytoca under typical laboratory culture conditions (i.e., leupeptin production is undetectable). Therefore, our study commenced by exploring growth conditions required to trigger leupeptin biosynthesis in K. oxytoca. To achieve this, we generated a green fluorescent protein (GFP)-based reporter system to monitor leup transcription in K. oxytoca ATCC 8724 (recently renamed as Klebsiella michiganensis (ATCC 8724), Fig. 1a). We utilized λ-red recombineering techniques[38] to replace the first biosynthetic gene (leupA) of the leupeptin BGC with a GFP-spectinomycin resistance cassette. […] Consequently, conditions that elicit transcription of the leupeptin BGC can be monitored by GFP fluorescence intensity.
5 mL of the leupeptin reporter strain was cultured aerobically in 10 g/L of LB (Becton Dickinson), yeast extract, GAM (HiMedia Laboratories), horse liver extract (HiMedia Laboratories), malt extract (VWR), meat extract (HiMedia Laboratories), YPD (Dot Scienticifc), brain heart infusion (Becton Dickinson), porcine mucin (Sigma-Aldrich, M1778), clostridial (Becton Dickinson), TSB (VWR), or casamino acid supplemented (5 g/L, VWR) M9 minimal salts (MP Biomedicals) at 30 °C for 24 h at 250 rpm. Cultures were lysed via sonication, centrifuged, and 150 µL of the supernatants were aliquoted into black well clear bottom 96 well plates. GFP fluorescence measurements were performed on a BioTek Synergy H1 plate reader with an excitation wavelength of 488 nm and an emission wavelength of 525 nm. For the carbohydrate screen, the leupeptin reporter strain was cultured in M9 minimal medium (MPbio) supplemented with casamino acid (5 g/L, VWR) and 0.4% indicated sugar aerobically at 30 °C for 24 h at 250 rpm.

## Cc1cnc(CCC(=O)O)c(Cc2ccccc2)n1 [compound 7]
∆pyr K. oxytoca; one hour, vs DMSO, Padj < 0.05, abs(log2FC) > 1
  number of differentially regulated genes: 644 genes
∆pyr K. oxytoca; vs DMSO control, RNA-seq
  effect on enterobactin BGC transcription: significantly enhanced transcription of the enterobactin BGC
∆pyr K. oxytoca; Funage-Pro, 7 downreg
  KEGG pathway enrichment neglogP: Citrate cycle, downregulated: 3.041
  KEGG pathway enrichment neglogP: Glycerolipid metabolism, downregulated: 4.481
  KEGG pathway enrichment neglogP: Nitrogen metabolism, downregulated: 3.06
∆pyr K. oxytoca; Funage-Pro, 7 upreg
  KEGG pathway enrichment neglogP: ABC Transporters, upregulated: 4.602
  KEGG pathway enrichment neglogP: Biosynthesis of siderophore group nonribosomal peptides, upregulated: 5.301
  KEGG pathway enrichment neglogP: Oxidative phosphorylation, upregulated: 3.252
  KEGG pathway enrichment neglogP: Phenylalanine Metabolism, upregulated: 4.301
∆pyr K. oxytoca; RNA-seq, pyrazine 7 compared with pyrazinone 3
  effect on cytochrome-related operons transcription: prominently upregulated
HRH1; Log(10)Conc (M) -4
  HRH1 dose-response raw reporter signal (Fig. 5b source data): 51351 and 49812 and 56357
HRH1; Log(10)Conc (M) -5
  HRH1 dose-response raw reporter signal (Fig. 5b source data): 52012 and 52029 and 55110
HRH1; Log(10)Conc (M) -6
  HRH1 dose-response raw reporter signal (Fig. 5b source data): 48657 and 55248 and 53819
HRH1; Log(10)Conc (M) -7
  HRH1 dose-response raw reporter signal (Fig. 5b source data): 47504 and 53144 and 54812
HRH1; Log(10)Conc (M) -8
  HRH1 dose-response raw reporter signal (Fig. 5b source data): 48011 and 51622 and 55024
HRH1; Log(10)Conc (M) -9
  HRH1 dose-response raw reporter signal (Fig. 5b source data): 49795 and 49308 and 52115
HRH1; Log(10)Conc (M) -10
  HRH1 dose-response raw reporter signal (Fig. 5b source data): 46794 and 49653 and 52654
HRH1; Log(10)Conc (M) -11
  HRH1 dose-response raw reporter signal (Fig. 5b source data): 47026 and 50225 and 51761
HRH1; Log(10)Conc (M) -12
  HRH1 dose-response raw reporter signal (Fig. 5b source data): 51855 and 50992 and 52000
HRH1; Log(10)Conc (M) -13
  HRH1 dose-response raw reporter signal (Fig. 5b source data): 49320 and 51552 and 55349
HRH1; Log(10)Conc (M) -14
  HRH1 dose-response raw reporter signal (Fig. 5b source data): 48035 and 52604 and 51817
HRH1; Log(10)Conc (M) -15
  HRH1 dose-response raw reporter signal (Fig. 5b source data): 39264 and 44810 and 48161
HRH1; PRESTO-Tango dose-response
  activity towards HRH1: no activity
HRH2; Log(10)Conc (M) -4
  HRH2 dose-response raw reporter signal (Fig. 5b source data): 62 and 50 and 47
HRH2; Log(10)Conc (M) -5
  HRH2 dose-response raw reporter signal (Fig. 5b source data): 47 and 50 and 83
HRH2; Log(10)Conc (M) -6
  HRH2 dose-response raw reporter signal (Fig. 5b source data): 18 and 53 and 71
HRH2; Log(10)Conc (M) -7
  HRH2 dose-response raw reporter signal (Fig. 5b source data): 50 (2×) and 74
HRH2; Log(10)Conc (M) -8
  HRH2 dose-response raw reporter signal (Fig. 5b source data): 44 and 35 and 56
HRH2; Log(10)Conc (M) -9
  HRH2 dose-response raw reporter signal (Fig. 5b source data): 97 and 65 and 41
HRH2; Log(10)Conc (M) -10
  HRH2 dose-response raw reporter signal (Fig. 5b source data): 56 and 32 and 21
HRH2; Log(10)Conc (M) -11
  HRH2 dose-response raw reporter signal (Fig. 5b source data): 18 and 53 and 44
HRH2; Log(10)Conc (M) -12
  HRH2 dose-response raw reporter signal (Fig. 5b source data): 32 and 65 and 68
HRH2; Log(10)Conc (M) -13
  HRH2 dose-response raw reporter signal (Fig. 5b source data): 35 and 62 and 97
HRH2; Log(10)Conc (M) -14
  HRH2 dose-response raw reporter signal (Fig. 5b source data): 32 and 47 and 68
HRH2; Log(10)Conc (M) -15
  HRH2 dose-response raw reporter signal (Fig. 5b source data): 77 and 53 and 71
HRH2; PRESTO-Tango dose-response
  activity towards HRH2: no activity
HRH3; Log(10)Conc (M) -4
  HRH3 dose-response raw reporter signal (Fig. 5b source data): 106 and 112 and 159
HRH3; Log(10)Conc (M) -5
  HRH3 dose-response raw reporter signal (Fig. 5b source data): 124 and 133 and 80
HRH3; Log(10)Conc (M) -6
  HRH3 dose-response raw reporter signal (Fig. 5b source data): 56 and 106 and 124
HRH3; Log(10)Conc (M) -7
  HRH3 dose-response raw reporter signal (Fig. 5b source data): 83 and 106 and 180
HRH3; Log(10)Conc (M) -8
  HRH3 dose-response raw reporter signal (Fig. 5b source data): 112 and 142 and 106
HRH3; Log(10)Conc (M) -9
  HRH3 dose-response raw reporter signal (Fig. 5b source data): 97 and 112 and 139
HRH3; Log(10)Conc (M) -10
  HRH3 dose-response raw reporter signal (Fig. 5b source data): 139 and 97 and 159
HRH3; Log(10)Conc (M) -11
  HRH3 dose-response raw reporter signal (Fig. 5b source data): 91 and 139 and 136
HRH3; Log(10)Conc (M) -12
  HRH3 dose-response raw reporter signal (Fig. 5b source data): 118 and 124 and 203
HRH3; Log(10)Conc (M) -13
  HRH3 dose-response raw reporter signal (Fig. 5b source data): 59 and 109 and 130
HRH3; Log(10)Conc (M) -14
  HRH3 dose-response raw reporter signal (Fig. 5b source data): 85 and 142 and 124
HRH3; Log(10)Conc (M) -15
  HRH3 dose-response raw reporter signal (Fig. 5b source data): 53 and 91 and 112
HRH3; PRESTO-Tango dose-response
  activity towards HRH3: no activity
[1]; Log(10)Conc (M) -5
  HRH4 dose-response raw reporter signal (Fig. 5b source data): 245 and 339
[1]; Log(10)Conc (M) -6
  HRH4 dose-response raw reporter signal (Fig. 5b source data): 295 and 333
[1]; Log(10)Conc (M) -7
  HRH4 dose-response raw reporter signal (Fig. 5b source data): 242 and 304
[1]; Log(10)Conc (M) -8
  HRH4 dose-response raw reporter signal (Fig. 5b source data): 271 and 336
[1]; Log(10)Conc (M) -9
  HRH4 dose-response raw reporter signal (Fig. 5b source data): 425 and 324
[1]; Log(10)Conc (M) -10
  HRH4 dose-response raw reporter signal (Fig. 5b source data): 307 and 401
[1]; Log(10)Conc (M) -11
  HRH4 dose-response raw reporter signal (Fig. 5b source data): 312 and 366
[1]; Log(10)Conc (M) -12
  HRH4 dose-response raw reporter signal (Fig. 5b source data): 242 and 292
[1]; Log(10)Conc (M) -13
  HRH4 dose-response raw reporter signal (Fig. 5b source data): 256 and 383
[1]; Log(10)Conc (M) -14
  HRH4 dose-response raw reporter signal (Fig. 5b source data): 271 and 304
[1]; Log(10)Conc (M) -15
  HRH4 dose-response raw reporter signal (Fig. 5b source data): 286 and 230
[1]; PRESTO-Tango dose-response
  activity towards HRH4: no activity

## N[C@H]1C(O)O[C@H](CO)[C@@H](O)[C@@H]1O (stereo partly drawn) [Glucosamine]
[2]; leup GFP reporter strain
  GFP fluorescence, GFP Strain + Media: 9974 RFU
[2]; wildtype K. oxytoca without reporter (background)
  GFP fluorescence, WT + Media: 5479 RFU
